Tested on: NHA cells ectopically expressing R132H IDH1
Assay: GC-MS quantification of 2HG and upstream metabolites in NHA cells expressing IDH1 R132H
Assay type: cell-based, human
Details: 48 hours
Procedure: GC-MS analysis. Metabolite extraction from cultured cells was performed as described previously by Figueroa et al. (2010). Briefly, cells were rinsed in ice cold PBS and rapidly quenched with 80% methanol spiked with 3-hydroxy-1,5-pentanedioic-2,2,3,4,4-d5 acid (CDN Isotopes, Quebec Canada) as an internal standard. Extracts were then incubated at −80° C. for 20 minutes, sonicated on ice, centrifuged at 14,000×g for 20 minutes at 4° C. to clear precipitate proteins, and supernatants transferred to vials for drying under N2. Derivatizing reagent (MSTFA (N-methyl-N-(trimethylsilyl)trifluoroacetamide):pyridine:acetonitrile 1:1:2) was added to the vials, which were then heated at 70° C. for 15 minutes.
Derivatized samples were analyzed on an Agilent 7890A gas chromatograph interfaced to an Agilent 5975C mass spectrometer. The GC column used for the study was a HP-5MS (30 m, 0.25 mm i.d., 0.25 μm film coating). A linear temperature gradient was used. The initial temperature of 80° C. was held for 2 minute and increased to 300° C. at 10° C./minute. […] 3-Hydroxy-1,5-pentanedioic-2,2,3,4,4-d5 acid was used as the internal standard in SIM mode for quantitation of 2-hydroxyglutaric acid. Quantitation was carried out by monitoring the ions at m/z 347 (glutamine and αKG), 348 (glutamate), 349 (2-hydroxyglutaric acid), and 354 (3-hydroxy-1,5-pentanedioic-2,2,3,4,4-d5).

Compound: CCCOc1ccccc1-c1nc2nn[nH]c2c(=O)[nH]1 [Zaprinast, 5-(2-propoxyphenyl)-1H-[1,2,3]triazolo[4,5-d]pyrimidin-7(4H)-one]
- Intracellular 2HG by GC-MS: modulated in a concentration-dependent manner
- Pattern of 2HG and upstream metabolite changes (compared with HT1080): the same pattern of metabolite level changes
